# Tests used:
# [1] = Inhibition of JAK-mediated IL4-induced Stat5 phosphorylation in BALB/c mouse CD11b-int macrophages by Phospho-Flow cytometry
# [2] = Inhibition of JAK-mediated IL6-induced Stat1 phosphorylation in BALB/c mouse B cells by Phospho-Flow cytometry; assay type: cell-based
# [3] = Inhibition of JAK-mediated IL10-induced Stat3 phosphorylation in BALB/c mouse B cells by Phospho-Flow cytometry; assay type: cell-based
# [4] = Inhibition of JAK-mediated interferon-gamma-induced Stat1 phosphorylation in BALB/c mouse B cells by Phospho-Flow cytometry; assay type: cell-based
# [5] = Inhibition of JAK-mediated IL6-induced Stat3 phosphorylation in BALB/c mouse B cells by Phospho-Flow cytometry; assay type: cell-based
# [6] = Inhibition of JAK-mediated IL15-induced Stat5 phosphorylation in BALB/c mouse B cells by Phospho-Flow cytometry; assay type: cell-based
# [7] = Inhibition of JAK-mediated IL7-induced Stat5 phosphorylation in BALB/c mouse B cells by Phospho-Flow cytometry; assay type: cell-based
# [8] = Inhibition of JAK-mediated IL4-induced Stat5 phosphorylation in BALB/c mouse B cells by Phospho-Flow cytometry; assay type: cell-based
# [9] = Inhibition of JAK-mediated IL6-induced Stat1 phosphorylation in BALB/c mouse CD4+ T cells by Phospho-Flow cytometry; assay type: cell-based; details: T-cell
# [10] = Inhibition of JAK-mediated IL10-induced Stat3 phosphorylation in BALB/c mouse CD4+ T cells by Phospho-Flow cytometry; assay type: cell-based; details: T-cell
# [11] = Inhibition of JAK-mediated interferon-gamma-induced Stat1 phosphorylation in BALB/c mouse CD4+ T cells by Phospho-Flow cytometry; assay type: cell-based; details: T-cell
# [12] = Inhibition of JAK-mediated IL6-induced Stat3 phosphorylation in BALB/c mouse CD4+ T cells by Phospho-Flow cytometry; assay type: cell-based; details: T-cell
# [13] = Inhibition of JAK-mediated IL15-induced Stat5 phosphorylation in BALB/c mouse CD4+ T cells by Phospho-Flow cytometry; assay type: cell-based; details: T-cell
# [14] = Inhibition of JAK-mediated IL7-induced Stat5 phosphorylation in BALB/c mouse CD4+ T cells by Phospho-Flow cytometry; assay type: cell-based; details: T-cell
# [15] = Inhibition of JAK-mediated IL4-induced Stat6 phosphorylation in BALB/c mouse CD4+ T cells by Phospho-Flow cytometry; assay type: cell-based; details: T-cell
# [16] = Inhibition of JAK-mediated IL4-induced Stat5 phosphorylation in BALB/c mouse CD4+ T cells by Phospho-Flow cytometry; assay type: cell-based; details: T-cell
# [17] = Inhibition of JAK-mediated IL6-induced Stat1 phosphorylation in BALB/c mouse CD8+ T cells by Phospho-Flow cytometry; assay type: cell-based; details: T-cell
# [18] = Inhibition of JAK-mediated IL10-induced Stat3 phosphorylation in BALB/c mouse CD8+ T cells by Phospho-Flow cytometry; assay type: cell-based; details: T-cell
# [19] = Inhibition of JAK-mediated interferon-gamma-induced Stat1 phosphorylation in BALB/c mouse […] T cells by Phospho-Flow cytometry; assay type: cell-based; details: T-cell
# [20] = Inhibition of JAK-mediated IL6-induced Stat3 phosphorylation in BALB/c mouse CD8+ T cells by Phospho-Flow cytometry; assay type: cell-based; details: T-cell
# [21] = Inhibition of JAK-mediated IL15-induced Stat5 phosphorylation in BALB/c mouse CD8+ T cells by Phospho-Flow cytometry; assay type: cell-based; details: T-cell
# [22] = Inhibition of JAK-mediated IL7-induced Stat5 phosphorylation in BALB/c mouse CD8+ T cells by Phospho-Flow cytometry; assay type: cell-based; details: T-cell
# [23] = Inhibition of JAK-mediated IL4-induced Stat6 phosphorylation in BALB/c mouse CD8+ T cells by Phospho-Flow cytometry; assay type: cell-based; details: T-cell
# [24] = Inhibition of JAK-mediated IL4-induced Stat5 phosphorylation in BALB/c mouse CD8+ T cells by Phospho-Flow cytometry; assay type: cell-based; details: T-cell
# [25] = Inhibition of JAK-mediated IL6-induced Stat1 phosphorylation in BALB/c mouse CD11b-hi neutrophils by Phospho-Flow cytometry
# [26] = Inhibition of JAK-mediated IL10-induced Stat3 phosphorylation in BALB/c mouse CD11b-hi neutrophils by Phospho-Flow cytometry
# [27] = Inhibition of JAK-mediated interferon-gamma-induced Stat1 phosphorylation in BALB/c mouse CD11b-hi neutrophils by Phospho-Flow cytometry
# [28] = Inhibition of JAK-mediated IL6-induced Stat3 phosphorylation in BALB/c mouse CD11b-hi neutrophils by Phospho-Flow cytometry
# [29] = Inhibition of JAK-mediated IL15-induced Stat5 phosphorylation in BALB/c mouse CD11b-hi neutrophils by Phospho-Flow cytometry
# [30] = Inhibition of JAK-mediated IL7-induced Stat5 phosphorylation in BALB/c mouse CD11b-hi neutrophils by Phospho-Flow cytometry
# [31] = Inhibition of JAK-mediated IL4-induced Stat5 phosphorylation in BALB/c mouse CD11b-hi neutrophils by Phospho-Flow cytometry
# [32] = Inhibition of JAK-mediated IL6-induced Stat1 phosphorylation in BALB/c mouse CD11b-int macrophages by Phospho-Flow cytometry
# [33] = Inhibition of JAK-mediated IL10-induced Stat3 phosphorylation in BALB/c mouse CD11b-int macrophages by Phospho-Flow cytometry
# [34] = Inhibition of JAK-mediated interferon-gamma-induced Stat1 phosphorylation in BALB/c mouse CD11b-int macrophages by Phospho-Flow cytometry
# [35] = Inhibition of JAK-mediated IL6-induced Stat3 phosphorylation in BALB/c mouse CD11b-int macrophages by Phospho-Flow cytometry
# [36] = Inhibition of JAK-mediated IL15-induced Stat5 phosphorylation in BALB/c mouse CD11b-int macrophages by Phospho-Flow cytometry
# [37] = Inhibition of JAK-mediated IL7-induced Stat5 phosphorylation in BALB/c mouse CD11b-int macrophages by Phospho-Flow cytometry
# [38] = Inhibition of JAK-mediated IL4-induced Stat6 phosphorylation in BALB/c mouse CD11b-int macrophages by Phospho-Flow cytometry
# MAP kinase p38 [39] = target: T1, MAP kinase p38 (Homo sapiens, UniProt O15264+Q15759+Q16539+P53778); test: Inhibition of anisomycin-induced p38 phosphorylation in human U937 cells by Phospho-Flow cytometry; assay type: cell-based; details: u-937
# [40] = target: T2, Janus Kinase (JAK) (Homo sapiens) (UniProt P52333+P23458+O60674+P29597); test: Inhibition of JAK-mediated GM-CSF-induced Stat5 phosphorylation in human U937 cells by Phospho-Flow cytometry at 20 uM; assay type: cell-based; details: U-937
# [41] = target: T2, Janus Kinase (JAK) (Homo sapiens); test: Inhibition of JAK-mediated interferon-gamma-induced Stat1 phosphorylation in human U937 cells by Phospho-Flow cytometry at 20 uM; assay type: cell-based; details: U-937
# MAP kinase p38 [42] = target: T1, MAP kinase p38; test: Inhibition of anisomycin-induced p38 phosphorylation in human U937 cells by Phospho-Flow cytometry at 20 uM; assay type: cell-based; details: U-937
compound,measurement,setting,value
C=CC(=O)c1ccc2ccccc2c1,IC50,[1],< 20 µM
same,IC50,[2],< 20 µM
same,IC50,[3],< 20 µM
same,IC50,[4],< 20 µM
same,IC50,[5],< 20 µM
same,IC50,[6],< 20 µM
same,IC50,[7],< 20 µM
same,IC50,[8],< 20 µM
same,IC50,[9],< 20 µM
same,IC50,[10],< 20 µM
same,IC50,[11],< 20 µM
same,IC50,[12],< 20 µM
same,IC50,[13],< 20 µM
same,IC50,[14],< 20 µM
same,IC50,[15],< 20 µM
same,IC50,[16],< 20 µM
same,IC50,[17],< 20 µM
same,IC50,[18],< 20 µM
same,IC50,[19],< 20 µM
same,IC50,[20],< 20 µM
same,IC50,[21],< 20 µM
same,IC50,[22],< 20 µM
same,IC50,[23],< 20 µM
same,IC50,[24],< 20 µM
same,IC50,[25],< 20 µM
same,IC50,[26],< 20 µM
same,IC50,[27],< 20 µM
same,IC50,[28],< 20 µM
same,IC50,[29],< 20 µM
same,IC50,[30],< 20 µM
same,IC50,[31],< 20 µM
same,IC50,[32],< 20 µM
same,IC50,[33],< 20 µM
same,IC50,[34],< 20 µM
same,IC50,[35],< 20 µM
same,IC50,[36],< 20 µM
same,IC50,[37],< 20 µM
same,IC50,[38],< 20 µM
COC1=C[C@]23CCCN2CCc2cc4c(cc2[C@@H]3[C@@H]1O)OCO4 [CEPHALOTAXINE],IC50,MAP kinase p38 [39],0.2 µM
same,inhibition,[40],25%
same,inhibition,[41],> 65%
same,inhibition,MAP kinase p38 [42],25%

# From ChEMBL document CHEMBL1212697, “High-content single-cell drug screening with phosphospecific flow cytometry” (Nat Chem Biol, 2008)
